BindingDB's records for doi:10.1080/14756360701408754 (Pharmaceutical Research Centre, 2008)

Target: T1, Seed linoleate 13S-lipoxygenase-1 (Glycine max, UniProt P08170)
T1 sequence (P08170 whole entry): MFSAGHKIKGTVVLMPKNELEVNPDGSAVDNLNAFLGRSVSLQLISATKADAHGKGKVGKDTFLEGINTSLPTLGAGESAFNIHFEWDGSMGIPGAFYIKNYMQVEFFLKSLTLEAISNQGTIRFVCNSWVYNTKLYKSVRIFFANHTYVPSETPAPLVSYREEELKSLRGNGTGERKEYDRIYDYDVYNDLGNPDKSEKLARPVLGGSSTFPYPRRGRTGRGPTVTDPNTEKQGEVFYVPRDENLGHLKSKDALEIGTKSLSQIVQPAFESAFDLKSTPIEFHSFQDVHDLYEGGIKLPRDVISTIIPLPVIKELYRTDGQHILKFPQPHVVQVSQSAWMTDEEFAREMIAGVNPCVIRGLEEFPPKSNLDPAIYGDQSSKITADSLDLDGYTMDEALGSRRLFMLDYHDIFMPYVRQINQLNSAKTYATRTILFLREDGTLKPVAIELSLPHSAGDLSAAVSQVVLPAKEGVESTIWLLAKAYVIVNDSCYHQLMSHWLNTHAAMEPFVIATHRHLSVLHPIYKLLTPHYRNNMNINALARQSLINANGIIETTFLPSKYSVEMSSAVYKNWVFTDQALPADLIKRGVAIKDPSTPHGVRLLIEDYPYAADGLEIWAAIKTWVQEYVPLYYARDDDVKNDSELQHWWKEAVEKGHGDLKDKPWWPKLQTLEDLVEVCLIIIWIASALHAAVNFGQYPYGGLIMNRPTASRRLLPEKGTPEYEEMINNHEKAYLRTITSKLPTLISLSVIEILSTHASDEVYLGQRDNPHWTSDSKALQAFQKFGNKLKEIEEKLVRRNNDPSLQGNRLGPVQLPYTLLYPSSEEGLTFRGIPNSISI
Test: Inhibition Assay
Details: pH 8; 25 °C
Experimental: In vitro liposygenase inhibition assay activity was measured by modifying the spectrophotometric method developed by Tappel. The compound was prepared in methanol at various concentrations ([…]). The inhibition by lipoxygenase activity by 50% (IC50) was determined by monitoring the effect of increasing concentrations of these compounds in the assays on the degree of inhibition.

IC50 | Compound
51.5 µM | CC1(C)CC(=O)C(C(c2ccco2)C2C(=O)CC(C)(C)CC2=O)C(=O)C1 [Tetraketone, 21]
191 µM | CC1(C)CC(=O)C(C(c2ccccc2[N+](=O)[O-])C2C(=O)CC(C)(C)CC2=O)C(=O)C1 [Tetraketone, 16]
7.8 µM | CC1(C)CC(=O)C(C(c2ccc(/C=C/c3ccccc3)cc2)C2C(=O)CC(C)(C)CC2=O)C(=O)C1 [Tetraketone, 19]
52.9 µM | CC1(C)CC(=O)C(C(c2cccc(Br)c2)C2C(=O)CC(C)(C)CC2=O)C(=O)C1 [Tetraketone, 14]
33.1 µM | COc1ccc(C(C2C(=O)CC(C)(C)CC2=O)C2C(=O)CC(C)(C)CC2=O)c(OC)c1 [Tetraketone, 9]
26.4 µM | CC1(C)CC(=O)C(C(c2ccc(O)cc2)C2C(=O)CC(C)(C)CC2=O)C(=O)C1 [Tetraketone, 6]
35.4 µM | CC1(C)CC(=O)C(C(c2ccc(/C(Br)=C/c3ccccc3)cc2)C2C(=O)CC(C)(C)CC2=O)C(=O)C1 [Tetraketone, 20]
27.1 µM | CC1(C)CC(=O)C(C(c2ccc(O)c(Br)c2)C2C(=O)CC(C)(C)CC2=O)C(=O)C1 [Tetraketone, 15]
30.8 µM | CCOc1ccc(C(C2C(=O)CC(C)(C)CC2=O)C2C(=O)CC(C)(C)CC2=O)cc1 [Tetraketone, 10]
17.5 µM | CN(C)c1ccc(C(C2C(=O)CC(C)(C)CC2=O)C2C(=O)CC(C)(C)CC2=O)cc1 [Tetraketone, 11]
196 µM | COc1ccccc1C(C1C(=O)CC(C)(C)CC1=O)C1C(=O)CC(C)(C)CC1=O [Tetraketone, 7]
28.4 µM | CC1(C)CC(=O)C(C(c2ccccc2Cl)C2C(=O)CC(C)(C)CC2=O)C(=O)C1 [Tetraketone, 12]
198 µM | CC1(C)CC(=O)C(C(c2ccccc2O)C2C(=O)CC(C)(C)CC2=O)C(=O)C1 [Tetraketone, 4]
21.3 µM | COc1ccc(C(C2C(=O)CC(C)(C)CC2=O)C2C(=O)CC(C)(C)CC2=O)cc1 [Tetraketone, 8]
33 µM | CC1(C)CC(=O)C(C(c2ccccc2)C2C(=O)CC(C)(C)CC2=O)C(=O)C1 [Tetraketone, 2]
16.3 µM | Cc1ccc(C(C2C(=O)CC(C)(C)CC2=O)C2C(=O)CC(C)(C)CC2=O)cc1 [Tetraketone, 3]
12.5 µM | Cc1ccc(C(C2C(=O)CC(C)(C)CC2=O)C2C(=O)CC(C)(C)CC2=O)o1 [Tetraketone, 22]
